Reference: US20240207202A1, “COMBINATION THERAPIES TARGETING MITOCHONDRIAL BIOGENESIS FOR CANCER THERAPY” (The Wistar Institute of Anatomy and Biology, priority 2015, published 2024)

Legend:
WM9 melanoma cells = test: Induction of apoptosis and cell death by PSVue 643 staining in WM9 melanoma cells; type: cell-based, human; settings: WM9, 72 h
Experimental: Adherent melanoma cells were harvested with 0.05% Trypsin-EDTA and were washed once with 1×DPBS. Cells were labeled with CellTrace™ Violet according to the manufacturer's protocol and were allowed to adhere to tissue culture plates overnight following the drug treatment. […] Cells were then immediately subjected to FACS analysis using a BD LSR II flow cytometer and at least 5,000 cells per sample were acquired.
Cell suspensions were kept in the dark at room temperature for 5 min. 0.2 ml 1×PBS supplemented with 10% FBS was added to each cell suspension and cells were immediately analyzed by BD LSRII.
Briefly, autophagic flux was assessed by FACS analysis of WM9 cells expressing the mCherry-eGFPLC3B construct that were transfected with the indicated siRNAs targeting autophagy and ER stress response and treated for 72 h with DMSO or the combination of PLX4720 at 10 μM and PD0325901 at 1 μM. The data represent the average of 2 biological replicates. […] Autophagic flux was assessed by FACS analysis of WM9 cells expressing the mCherry-eGFPLC3B construct treated for 72 h with Gamitrinib at 1 μM or Spautin-1 at 10 μM in combination with PLX4720 at 10 μM/PD0325901 at 1 μM. Cells treated with DMSO were used as the control for setting up the gate.

WM4265-2 cells = test: Tumor volume of WM4265-2 xenografts; type: in vivo, mice; settings: WM4265-2 xenografts (immunotherapy-progressed patient PDX line); Gamitrinib 10 mg/kg
Experimental: Mice were xenografted with WM4265-2 cells until tumors were established and then treated with Gamitrinib (10 mg/kg).

[1] = test system: LC3B-II, phospho-S6, phospho-AMPKα; test: RPPA and immunoblotting of autophagy and metabolic stress markers in WM9 cells; type: cell-based, human
From the text: The raw data of gene expression microarrays generated from Illumina Chips were normalized, background-corrected and summarized using the R package “lumi” (Du et al., 2008). Probes below background level (detection P-value <0.01) were excluded and differential expression was identified with Bayes-adjusted variance analysis using the Bioconductor Limma package. To reduce false positives, the unexpressed probes were removed. The R package “limma” (Smyth, 2004, 2005) was employed for gene differential expression analysis, followed by multiple test correction by the Benjamini and Hochberg procedure (Benjamini and Hochberg, 1995). […] We also conducted GSEA as previously reported (Subramanian et al., 2005). For GSEA, we analyzed gene sets obtained from the Molecular Signatures Database (broadinstitute.org/gsea/msigdb/). The same differential expression analysis method was applied to RPPA data.
Cells were washed with ice-cold PBS containing 100 μM Na3VO4 and scraped off culture dishes. After centrifugation, cell pellets were lysed in buffer containing 10 mM Tris-HCl, pH 7.8, 150 mM NaCl, 1 mM EDTA, 1% Nonidet P-40, 1 mM Na3VO4 and protease inhibitors (Roche complete protease inhibitor tablets). Lysates were cleared by micro-centrifugation and protein concentrations were determined with Protein Assay Dye Reagent Concentrate (Bio-Rad). […]

Substance: Gamitrinib
- induction of apoptosis and cell death (WM9 melanoma cells; Gamitrinib 1 or 2.5 μM vs 0 or 0.5 μM, with PLX4720 10 μM and PD0325901 1 μM): more remarkable induction of apoptosis and cell death
- apoptosis and cell death, compared with other inhibitors of the drug screen (WM9 melanoma cells; titrated doses combined with MAPK pathway inhibitors (PLX4720 10 μM, PD0325901 1 μM)): greater increase in apoptosis and cell death
- tumor growth (WM4265-2 cells): significantly inhibited tumor growth
- LC3B-II, phospho-S6 and phospho-AMPKα [1]: down-regulated LC3B-II and phospho-S6 and up-regulated phospho-AMPKα
